Source: ChEMBL document CHEMBL4813952, “Axial Chiral Binaphthoquinone and Perylenequinones from the Stromata of Hypocrella bambusae Are SARS-CoV-2 Entry Inhibitors” (J Nat Prod, 2021)
Active and inactive are the calls of the source. The rule behind the calls is not given here.

Legend:
[1] = target: Spike glycoprotein (Severe acute respiratory syndrome coronavirus 2) (UniProt P0DTC2); assay: Inhibition of spike glycoprotein S in SARS-CoV-2 pseudovirus infected in human 293T/ACE2 cells assessed as inhibition of viral infection; format: cell-based
[2] = Cytotoxicity against human 293T/ACE2 cells measured after 48 hrs by CCK8 assay; format: cell-based
SARS-CoV-2 [3] = assay: Antiviral activity against SARS-CoV-2 Wuhan-HU-1 infection on African green monkey Vero E6 cells assessed by drecrease in viral nucleocapsid N-protein expression at 20 uM measured after 48 hrs by DAPI staining based immunofluorescence microscopy; format: functional, organism-based; conditions: Severe acute respiratory syndrome coronavirus 2
Spike glycoprotein = Spike glycoprotein (Severe acute respiratory syndrome coronavirus 2, UniProt P0DTC2); assay: Binding affinity to SARS-CoV-2 spike glycoprotein S RBD at 25 degreeC by surface plasmon resonance assay
[4] = target: Spike glycoprotein (Severe acute respiratory syndrome coronavirus 2) (UniProt P0DTC2); assay: Inhibition of SARS-CoV-2 spike glycoprotein S expressed in human HEK293T cells cotransfected with pAAV-IRES-GFP assessed as inhibition of membrane fusion to African green monkey Vero E6 cells causing suppression of syncytium formation at 2 uM preincubated for 30 mins measured after 24 hrs by cell-cell fusion based fluorescence microscopy; conditions: time 24.5 hrs
SARS-CoV-2 [5] = assay: Antiviral activity against SARS-CoV-2 Wuhan-HU-1 infected in African green monkey Vero E6 cells assessed as inhibition of viral infection when cells were preincubated for 1 hr followed by viral infection measured after 24 hrs by qPCR analysis; format: functional, organism-based; conditions: Severe acute respiratory syndrome coronavirus 2, Wuhan-HU-1, Vero C1008
Vero C1008 = assay: Cytotoxicity against African Green monkey Vero E6 cells at 10 uM measured after 24 to 48 hrs by CCK8 assay; format: cell-based; conditions: chlorocebus sabaeus, vero c1008, 10 µM, time 24-48 hrs
SARS-CoV-2 [6] = assay: Antiviral activity against SARS-CoV-2 Wuhan-HU-1 infection on African green monkey Vero E6 cells assessed by drecrease in viral nucleocapsid N-protein expression measured after 48 hrs by DAPI staining based immunofluorescence microscopy; format: functional, organism-based; conditions: Severe acute respiratory syndrome coronavirus 2, dose 0.08-2.2 µM

SMILES: COC1=C(CC(C)=O)C(=O)c2c(c(O)cc(OC)c2-c2c(OC)cc(O)c3c2C(=O)C(CC(C)=O)=C(OC)C3=O)C1=O
- inhibition [1]: inactive
- CC50 at 48 h [2]: > 10 µM
- Activity (SARS-CoV-2 [3]): inactive

SMILES: COC1=CC(=O)c2c(O)c(OC)c3c(c2C1=O)-c1c(c(OC)c(O)c2c1C(=O)C(OC)=CC2O)C[C@](C)(O)[C@@H]3C(C)=O (stereo not given in full)
- inhibition [1]: inactive
- CC50 at 48 h [2]: > 10 µM

SMILES: COc1c2c3c4c(c(OC)c(=O)c5c(O)cc(OC)c(c6c(OC)cc(O)c(c1=O)c63)c54)[C@@H](C(C)=O)[C@@](C)(O)C2 [HYPOCRELLIN A]
- Kd (Spike glycoprotein): 37.9 nM
- inhibition [1]: inactive
- CC50 at 48 h [2]: 2 µM
- inhibition [4]: inactive
- EC50 (SARS-CoV-2 [5]): 220 nM
- Activity (Vero C1008): Non-Toxic
- Activity (SARS-CoV-2 [6]): Dose-Dependent Effect

SMILES: COc1c2c3c4c(c(OC)c(=O)c5c(O)cc(OC)c(c6c(OC)ccc(c1=O)c63)c54)CC(C)=C2C(C)=O
- inhibition [1]: inactive
- CC50 at 48 h [2]: > 10 µM

SMILES: COC1=C2c3c4c5c(c(O)cc(OC)c5c5c(OC)cc(O)c(c35)C1=O)C(=O)[C@@H](OC)[C@@]41C[C@](C)(O)[C@@H]2[C@]1(C)O
- inhibition [1]: inactive
- CC50 at 48 h [2]: > 10 µM

SMILES: COC1=C2c3c4c5c(c(O)cc(OC)c5c5c(OC)cc(O)c(c35)C1=O)C(=O)[C@@H](OC)[C@@]41C[C@](C)(O)[C@@H]2[C@@]1(C)O
- inhibition [1]: inactive
- CC50 at 48 h [2]: > 10 µM

SMILES: COc1c(O)c2c(=O)cc(OC)c3c4c(OC)cc(=O)c5c(O)c(OC)c6c(c(c1C[C@](C)(O)[C@H]6C(C)=O)c23)c54
- Kd (Spike glycoprotein): 22.8 nM
- inhibition [1]: inactive
- CC50 at 48 h [2]: 2.5 µM
- inhibition [4]: inactive
- EC50 (SARS-CoV-2 [5]): 210 nM
- Activity (Vero C1008): Non-Toxic
- Activity (SARS-CoV-2 [6]): Dose-Dependent Effect
